Data: ChEMBL document CHEMBL5532639, “Heterocyclic pyrimidine derivatives as promising antibacterial agents” (Eur J Med Chem, 2023)
≈ marks a conversion by molar mass, not a printed value. Values belong to the molecule of their own block, whether it stands above or below them.

Columns and labels:
Bacillus subtilis [1] = test: Antibacterial activity against Bacillus subtilis ATCC 465 assessed as reduction in bacterial growth measured after 24 hrs by Mueller-Hinton broth assay; type: functional
Staphylococcus aureus [2] = test: microbe, parasite or virus in culture; settings: ATCC 25923, 24 h
Description: Antibacterial activity against Staphylococcus aureus ATCC 25923 assessed as reduction in bacterial growth measured after 24 hrs by Mueller-Hinton broth assay

Staphylococcus aureus [3] = test: Antibacterial activity against Staphylococcus aureus assessed as bacterial growth inhibition by measuring zone of inhibition at 50 ug/ml by agar cup diffusion assay; type: functional; settings: read-out: IZ
Escherichia coli [4] = test: Antibacterial activity against Escherichia coli assessed as bacterial growth inhibition by measuring zone of inhibition at 50 ug/ml by agar cup diffusion assay; type: functional; settings: read-out: IZ
Bacillus subtilis [5] = test: Antibacterial activity against Bacillus subtilis assessed as zone of inhibition at 20 mg/ml; type: functional; settings: read-out: IZ
Sarcina = test: Antibacterial activity against Sarcina assessed as zone of inhibition at 20 mg/ml; type: functional; settings: read-out: IZ
Staphylococcus aureus [6] = test: Antibacterial activity against Staphylococcus aureus assessed as zone of inhibition at 20 mg/ml; type: functional; settings: read-out: IZ
Escherichia coli [7] = test: Antibacterial activity against Escherichia coli assessed as zone of inhibition at 20 mg/ml; type: functional; settings: read-out: IZ
Serratia marcescens = test: Antibacterial activity against Serratia marcescens assessed as zone of inhibition at 20 microg/ml; type: functional; settings: read-out: IZ
Pseudomonas aeruginosa [8] = test: Antibacterial activity against Pseudomonas aeruginosa assessed as inhibition of microbial growth by broth micro-dilution method; type: functional
Escherichia coli [9] = test: Antibacterial activity against Escherichia coli assessed as inhibition of microbial growth by broth micro-dilution method; type: functional
Staphylococcus aureus [10] = test: Antibacterial activity against Staphylococcus aureus assessed as inhibition of microbial growth by broth micro-dilution method; type: functional
Streptococcus pyogenes [11] = test: Antibacterial activity against Streptococcus pyogenes assessed as inhibition of microbial growth by broth micro-dilution method; type: functional
Salmonella typhimurium = test: Antibacterial activity against Salmonella typhimurium DT104 assessed as reduction in bacterial growth; type: functional, Salmonella enterica subsp. enterica serovar Typhimurium; settings: Salmonella enterica
Escherichia coli [12] = test: Antibacterial activity against Escherichia coli ATCC 25922 assessed as bacterial growth inhibition; type: functional
Staphylococcus aureus [13] = test: Antibacterial activity against Staphylococcus aureus ATCC 3750 assessed as reduction in bacterial growth; type: functional
Bacillus subtilis [14] = test: Antibacterial activity against Bacillus subtilis 6633 assessed as reduction in bacterial growth; type: functional
Escherichia coli [15] = test: Antibacterial activity against Escherichia coli assessed as bacterial growth inhibition incubated for 18 hrs by CLSI protocol based Mueller-Hinton broth assay; type: functional
Pseudomonas aeruginosa [16] = test: Antibacterial activity against Pseudomonas aeruginosa assessed as reduction in bacterial growth by broth microdilution method; type: functional
Staphylococcus aureus [17] = test: Antibacterial activity against Staphylococcus aureus assessed as reduction in microbial growth by CLSI based broth microdilution method; type: functional
Streptococcus pyogenes [18] = test: Antibacterial activity against Streptococcus pyogenes assessed as reduction in microbial growth by CLSI based broth microdilution method; type: functional
Pseudomonas aeruginosa [19] = test: Antibacterial activity against Pseudomonas aeruginosa assessed as reduction in microbial growth by measuring zone of inhibition; type: functional
Bacillus subtilis [20] = test: Antibacterial activity against Bacillus subtilis assessed as reduction in microbial growth by measuring zone of inhibition; type: functional
Escherichia coli [21] = test: Antibacterial activity against Escherichia coli assessed as reduction in microbial growth by measuring zone of inhibition; type: functional
Staphylococcus aureus [22] = test: Antibacterial activity against Staphylococcus aureus assessed as reduction in microbial growth by measuring zone of inhibition; type: functional
Escherichia coli [23] = test: Antimicrobial activity against Escherichia coli RCMB 010052 assessed as bacterial growth inhibition by measuring zone of inhibition at 50 ug/ml by agar cup diffusion assay; type: functional; settings: read-out: IZ
Streptococcus pneumoniae = test: Antimicrobial activity against Streptococcus […] assessed as bacterial growth inhibition by measuring zone of inhibition at 50 ug/ml by agar cup diffusion assay; type: functional; settings: read-out: IZ
Bacillus subtilis [24] = test: Antimicrobial activity against Bacillus subtilis RCMB 010069 assessed as bacterial growth inhibition by measuring zone of inhibition at 50 ug/ml by agar cup diffusion assay; type: functional; settings: read-out: IZ

- MIC (Bacillus subtilis [1]): 4 µg/mL (≈ 11.5 µM)
- MIC (Staphylococcus aureus [2]): 64 µg/mL (≈ 184 µM)
Compound: N#Cc1nc2[nH]c(=O)[nH]c(=O)c2c(-c2c(Cl)cccc2Cl)c1N

Compound: COc1cc(-c2cc(-c3cc(F)c(Cl)cc3Cl)nc(NC(=O)CSc3nnc(-c4cccnc4N4CCOCC4)o3)n2)cc(OC)c1OC
- zone of inhibition at 50 µg/mL (Staphylococcus aureus [3]): 9 mm
- zone of inhibition at 50 µg/mL (Escherichia coli [4]): 14 mm

Compound: COc1ccc(Nc2c(C#N)c(N)nc3c(/N=N/c4ccc(S(=O)(=O)Nc5ncccn5)cc4)c(=O)[nH]n23)cc1
- zone of inhibition at 20000 µg/mL (Bacillus subtilis [5]): 9 mm
- zone of inhibition at 20000 µg/mL (Sarcina): 15 mm
- zone of inhibition at 20000 µg/mL (Staphylococcus aureus [6]): 12 mm
- zone of inhibition at 20000 µg/mL (Escherichia coli [7]): 15 mm
- zone of inhibition at 20 µg/mL (Serratia marcescens): 15 mm

Compound: Cc1cnc(NS(=O)(=O)c2ccc(/N=N/c3c(=O)[nH]n4c(NN)c(C#N)c(N)nc34)cc2)nc1
- zone of inhibition at 20000 µg/mL (Bacillus subtilis [5]): 9 mm
- zone of inhibition at 20000 µg/mL (Sarcina): 12 mm
- zone of inhibition at 20000 µg/mL (Staphylococcus aureus [6]): 9 mm
- zone of inhibition at 20000 µg/mL (Escherichia coli [7]): 12 mm
- zone of inhibition at 20 µg/mL (Serratia marcescens): 15 mm

- MIC (Pseudomonas aeruginosa [8]): 25 µg/mL
- MIC (Escherichia coli [9]): 25 µg/mL
- MIC (Staphylococcus aureus [10]): 50 µg/mL
- MIC (Streptococcus pyogenes [11]): 50 µg/mL
Compound: COc1ccc(-c2cc(-c3ccc(Oc4ccccc4)cc3)nc(SCC(=O)Nc3nc4ccc(OC)cc4s3)n2)cc1

- MIC (Salmonella typhimurium): 5 µg/mL (≈ 12.9 µM)
- MIC (Escherichia coli [12]): 4 µg/mL (≈ 10.3 µM)
- MIC (Staphylococcus aureus [13]): 4 µg/mL (≈ 10.3 µM)
- MIC (Bacillus subtilis [14]): 5 µg/mL (≈ 12.9 µM)
Compound: Cc1nc2scc(-c3ccco3)c2c(=O)n1NC(=O)c1ccc(F)cc1F

Compound: Cc1ccc(Nc2c(C#N)c(N)nc3c(/N=N/c4ccc(S(=O)(=O)Nc5ncc(C)cn5)cc4)c(=O)[nH]n23)cc1
- zone of inhibition at 20000 µg/mL (Bacillus subtilis [5]): 9 mm
- zone of inhibition at 20000 µg/mL (Sarcina): 15 mm
- zone of inhibition at 20000 µg/mL (Staphylococcus aureus [6]): 12 mm
- zone of inhibition at 20000 µg/mL (Escherichia coli [7]): 12 mm
- zone of inhibition at 20 µg/mL (Serratia marcescens): 15 mm

- MIC (Escherichia coli [15]): 25 µg/mL (≈ 45.6 µM)
- MIC (Pseudomonas aeruginosa [16]): 50 µg/mL (≈ 91.1 µM)
- MIC (Staphylococcus aureus [17]): 100 µg/mL
- MIC (Streptococcus pyogenes [18]): 100 µg/mL
Compound: O=[N+]([O-])c1ccc(Nc2nc(Nc3ccc(S(=O)(=O)Nc4ncccn4)cc3)nc(N3CCCCC3)n2)cc1

Compound: CN[C@@H]1[C@H](O[C@H]2[C@H](O[C@H]3[C@H](O)[C@@H](O)[C@H](N=C(N)N)[C@@H](O)[C@@H]3N=C(N)N)O[C@@H](C)[C@]2(O)C=O)O[C@@H](CO)[C@H](O)[C@H]1O [STREPTOMYCIN]
- zone of inhibition at 20000 µg/mL (Bacillus subtilis [5]): 18 mm
- zone of inhibition at 20000 µg/mL (Sarcina): 18 mm
- zone of inhibition at 20000 µg/mL (Staphylococcus aureus [6]): 18 mm
- zone of inhibition at 20000 µg/mL (Escherichia coli [7]): 18 mm
- zone of inhibition at 20 µg/mL (Serratia marcescens): 18 mm

Compound: Ic1cnc(SCc2ccccc2)nc1N/N=C/c1c(-c2ccccc2)c(-c2ccccc2)nn1-c1ccccc1
- inhibition zone (IZ) (Pseudomonas aeruginosa [19]): 16 mm
- inhibition zone (IZ) (Bacillus subtilis [20]): 20 mm
- inhibition zone (IZ) (Escherichia coli [21]): 10 mm
- inhibition zone (IZ) (Staphylococcus aureus [22]): 18 mm

Compound: CSc1c(C#N)c(N)nc2c(/N=N/c3ccc(S(=O)(=O)Nc4ncc(C)cn4)cc3)c(=O)[nH]n12
- zone of inhibition at 20000 µg/mL (Bacillus subtilis [5]): 9 mm
- zone of inhibition at 20000 µg/mL (Sarcina): 12 mm
- zone of inhibition at 20000 µg/mL (Staphylococcus aureus [6]): 9 mm
- zone of inhibition at 20000 µg/mL (Escherichia coli [7]): 12 mm
- zone of inhibition at 20 µg/mL (Serratia marcescens): 15 mm

Compound: Nc1ncccc1/C=N/Nc1nc(SCc2ccccc2)ncc1I
- inhibition zone (IZ) (Pseudomonas aeruginosa [19]): 18 mm
- inhibition zone (IZ) (Bacillus subtilis [20]): 17 mm
- inhibition zone (IZ) (Escherichia coli [21]): 7 mm
- inhibition zone (IZ) (Staphylococcus aureus [22]): 18 mm

Compound: Cc1ccc(-c2c(C(=O)c3ccc(C(=O)O)cc3)c(N)nc3ncnn23)cc1
- zone of inhibition at 50 µg/mL (Escherichia coli [23]): 16.6 mm
- zone of inhibition at 50 µg/mL (Streptococcus pneumoniae): 20.7 mm
- zone of inhibition at 50 µg/mL (Bacillus subtilis [24]): 26.8 mm

- MIC (Escherichia coli [15]): 25 µg/mL (≈ 46.5 µM)
- MIC (Pseudomonas aeruginosa [16]): 100 µg/mL (≈ 186 µM)
- MIC (Staphylococcus aureus [17]): 200 µg/mL
- MIC (Streptococcus pyogenes [18]): 100 µg/mL
Compound: O=S(=O)(Nc1ncccn1)c1ccc(Nc2nc(Nc3ccc(Cl)cc3)nc(N3CCCCC3)n2)cc1

Compound: COc1ccc(/C=N/Nc2nc(SCc3ccccc3)ncc2I)cc1O
- inhibition zone (IZ) (Pseudomonas aeruginosa [19]): 19 mm
- inhibition zone (IZ) (Bacillus subtilis [20]): 13 mm
- inhibition zone (IZ) (Escherichia coli [21]): 4 mm
- inhibition zone (IZ) (Staphylococcus aureus [22]): 12 mm

Compound: CCn1cc(C(=O)O)c(=O)c2cc(F)c(N3CCNCC3)cc21 [NORFLOXACIN]
- MIC (Pseudomonas aeruginosa [8]): 10 µg/mL
- MIC (Escherichia coli [9]): 10 µg/mL
- MIC (Staphylococcus aureus [10]): 10 µg/mL
- MIC (Streptococcus pyogenes [11]): 10 µg/mL

- MIC (Escherichia coli [15]): 25 µg/mL (≈ 43.4 µM)
- MIC (Pseudomonas aeruginosa [16]): 25 µg/mL (≈ 43.4 µM)
- MIC (Staphylococcus aureus [17]): 100 µg/mL
- MIC (Streptococcus pyogenes [18]): 100 µg/mL
Compound: CCOC(=O)c1ccc(Nc2nc(Nc3ccc(S(=O)(=O)Nc4ncccn4)cc3)nc(N3CCCCC3)n2)cc1

Compound: O=C1OC(c2ccc(C(=O)O)cc2)N=C1/C=C/c1ccc(C(=O)c2ccccc2)cc1 (centres undefined)
- zone of inhibition at 50 µg/mL (Escherichia coli [23]): 17 mm
- zone of inhibition at 50 µg/mL (Streptococcus pneumoniae): 19.3 mm
- zone of inhibition at 50 µg/mL (Bacillus subtilis [24]): 23.7 mm

Compound: COc1ccc(-c2c(C(=O)c3ccc(C(=O)O)cc3)c(N)nc3nc4ccccc4n23)cc1
- zone of inhibition at 50 µg/mL (Escherichia coli [23]): 17.9 mm
- zone of inhibition at 50 µg/mL (Streptococcus pneumoniae): 19.3 mm
- zone of inhibition at 50 µg/mL (Bacillus subtilis [24]): 24.7 mm
